# In patent US20100298551A1, “Methods Of Producing And Sequencing Modified Polynucleotides” (priority 2005, published 2010):
# Target: T1, exo− E. coli Polymerase I, Klenow fragment (Escherichia coli, UniProt P00582, D355A/E357A)
# T1 construct: 12.5 U exo^− E. coli Polymerase I, Klenow fragment (Epicentre); purchased Epicentre
# Assay: Primer extension: incorporation of 3′ thiol-nucleoside triphosphate into a growing DNA strand by DNA polymerase
# Assay type: biochemical
# Experimental: DNA synthesis was performed on a single-stranded DNA template (5′-TTTTTTCTAAGGTAGCGACTGTCCTATACAGACTGACAAAAAAAGAGAATGAGGAACCCGGGGCAG-3′) (SEQ ID NO:1), which was labeled at its 5′ end with a dual biotin tag and was attached to a magnetic bead (FIG. 3B). Synthesis was primed using a primer (5′-CTGCCCCGGGTTCCTCATTCTCT-3′) (SEQ ID NO:2), which was complementary to a portion of the DNA template. The primer was labeled with Cy5 at its 5′ end. The DNA template contained 5 adenine nucleotides immediately downstream of the primer sequence. […]
# T1 sequence (P00582 324-928 D355A/E357A): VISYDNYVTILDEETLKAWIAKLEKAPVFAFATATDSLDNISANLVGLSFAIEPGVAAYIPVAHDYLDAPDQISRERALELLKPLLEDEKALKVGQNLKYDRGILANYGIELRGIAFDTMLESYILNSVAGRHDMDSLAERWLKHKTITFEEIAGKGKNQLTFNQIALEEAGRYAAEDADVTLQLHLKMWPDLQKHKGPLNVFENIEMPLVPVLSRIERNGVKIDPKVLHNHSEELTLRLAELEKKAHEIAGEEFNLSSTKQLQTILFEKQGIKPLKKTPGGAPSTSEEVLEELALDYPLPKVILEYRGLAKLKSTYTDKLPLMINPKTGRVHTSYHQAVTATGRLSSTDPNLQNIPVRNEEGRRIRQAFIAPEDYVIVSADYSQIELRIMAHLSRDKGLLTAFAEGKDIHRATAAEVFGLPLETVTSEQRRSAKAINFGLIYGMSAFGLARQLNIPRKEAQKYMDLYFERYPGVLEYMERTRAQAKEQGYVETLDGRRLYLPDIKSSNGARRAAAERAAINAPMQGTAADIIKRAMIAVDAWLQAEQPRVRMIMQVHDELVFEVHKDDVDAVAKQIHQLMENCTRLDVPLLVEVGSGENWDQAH
compound,measurement,setting,value
CSS[C@H]1C[C@H](n2cc(C)c(=O)[nH]c2=O)O[C@@H]1CO [3′-deoxy-dithiomethyl thymidine],modified thymidine residues in the vast majority of reaction products,higher concentration 1.0 mM (FIG. 3E),5
same,number of 3′-deoxy-dithiomethyl thymidine nucleotides incorporated into the DNA product,"template with 5 adenines downstream of primer, 37° C., 4.0 min",Up to five
